Here are results for 8 compounds from ChEMBL document CHEMBL1201862, “PubChem BioAssay data set” (2004).

Experiment in all cases: inhibition of tumour cell growth, NCI panel, 48 h
The test system of test [1] is A549.
Test [2] has as its system BT-549.
For test [3], the system named is CAKI-1.
For test [4], the system named is DU-145.
In test [5] the test system is HL-60.
For test [6], the system named is Hs-578T.
For test [7], the system named is K562.
In test [8] the test system is LOX IMVI.
Test [9] concerns M14.
For test [10], the system named is MDA-MB-435.
For test [11], the system named is NCI-H460.
The test system of test [12] is PC-3.
For test [13], the system named is RXF 393.
The subject of test [14] is SF-268.
Test [15] deals with SF-539.
In test [16] the test system is SK-MEL-28.
The test system of test [17] is SK-MEL-2.
In test [18] the test system is SK-MEL-5.
Test [19] relates to SNB-75.

Molecules are shown by their SMILES.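 Growth conditions: 96-well plates. Treatment: test compound, 48 hours, 5 concentrations. Analysis: linear interpolation between bracketing concentrations; unreached endpoints set to highest concentration. The concentration for 50% growth inhibition is given as GI50.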 The source made the active and inactive calls. Cut-off read from the data, not from the text of the source: active = GI50 up to about 1.1 µM and inactive = higher.

In the case of `c1ccc(-c2cn3c(nc4ccccc43)c(-c3ccccc3)n2)cc1`, the GI50 was > 68.7 µM (inactive) in test [1]; 29.4 µM (inactive) in test [2]; > 48.9 µM (inactive) in [3]; > 100 µM (inactive) in [4]; > 100 µM (inactive) in [5]; 16.3 µM (inactive) in test [6]. Moreover, the GI50 in test [7] was > 100 µM (inactive); in test [8] it was 81.8 µM (inactive); in [9], > 100 µM (inactive); in test [10] it was > 87.7 µM (inactive); in test [11], 58.1 µM (inactive); in test [12], > 57.7 µM (inactive). Besides, the GI50 was > 38 µM (inactive) in [13]; > 50.6 µM (inactive) in test [14]; 27.9 µM (inactive) in test [15]; > 100 µM (inactive) in test [16]; 30.1 µM (inactive) in test [17]; 84.3 µM (inactive) in test [18]. Also, the GI50 in test [19] is 14.5 µM (inactive).

For the compound `CCOC(=O)N/N=C/C1=NN(C(=O)OCC)[S+]([O-])C1C` (stereo not given), the GI50 in test [1], in test [2], in test [3], in test [4], in test [5] and in test [6] was > 100 µM (inactive) throughout. Further, the GI50 in [7] was > 100 µM (inactive); in [9], > 100 µM (inactive); in [10], > 100 µM (inactive); in test [11] it was 96.8 µM (inactive); in test [12] it was > 100 µM (inactive); in [13], > 100 µM (inactive). The GI50 in test [14], in test [15], in test [16], in test [17], in test [18] and in test [19] was > 100 µM (inactive) each time.

As for `N#Cc1[nH]c(=O)n(-c2ccc(Cl)cc2)c1N`, the GI50 in [1] was > 10 µM (inactive); in test [2], > 10 µM (inactive); in test [3] it was 0.00637 µM (active); in [4], > 10 µM (inactive); in [5] it was > 10 µM (inactive); in test [6], > 10 µM (inactive). For the same compound, the GI50 in test [7], in test [8], in [9], in [10], in [11] and in test [12] was > 10 µM (inactive) throughout. Besides, the GI50 in test [13], in test [14], in test [15], in [16], in test [17] and in test [18] was > 10 µM (inactive) each time.

Take `Nc1c(Br)cc(-c2nc3ccccc3s2)cc1Br`: the GI50 in test [1], in [2], in [3], in test [4], in test [5] and in [6] was > 100 µM (inactive) each time. Besides, the GI50 in test [7], in [9], in test [10], in test [11], in [12] and in [13] was > 100 µM (inactive) each time. Further, the GI50 in test [14], in [15], in test [16], in test [17], in test [18] and in [19] was > 100 µM (inactive) in each case.

For the compound `CC(=O)Nc1cc2nc3n(c2cc1C)CCC3OC(C)=O` (stereo not given), the GI50 in test [1], in [2], in test [3], in test [4], in test [5] and in test [6] was > 100 µM (inactive) throughout. The GI50 in test [7], in [8], in [9], in [10], in test [11] and in test [12] was > 100 µM (inactive) throughout. Besides, the GI50 in [13], in test [14], in [15], in test [16], in test [17] and in test [19] was > 100 µM (inactive) in each case.

On to `O=C(O)[C@@H]1C2CC([C@@H]1C(=O)O)[C@H](N1C(=O)CCC1=O)[C@@H]2Br` (stereo not given in full), for which the GI50 in [1], in [2], in test [4], in test [5], in test [6] and in [7] was > 100 µM (inactive) each time. The GI50 in test [8], in test [9], in test [10], in test [11], in test [12] and in [13] was > 100 µM (inactive) throughout. The GI50 in [14] is > 100 µM (inactive); in test [15], > 100 µM (inactive); in [16], > 100 µM (inactive); in [17], > 100 µM (inactive); in test [18], > 100 µM (inactive); in [19], 84.5 µM (inactive).

With `Cc1nnc(S(=O)(=O)c2ccc(/N=N/c3c(N)nc(N)nc3N)cc2)s1`, the GI50 in [1] was > 100 µM (inactive); in [2], > 100 µM (inactive); in test [3], > 100 µM (inactive); in test [4], > 100 µM (inactive); in test [5], 33.4 µM (inactive); in [6], > 100 µM (inactive). The GI50 in test [7], in test [8], in test [9], in test [10], in test [11] and in test [12] was > 100 µM (inactive) each time. For the same compound, the GI50 in [13], in [14], in test [15], in test [16], in test [17] and in test [18] was > 100 µM (inactive) in each case.

For the compound `CCOC(=O)/C=C(/C(=O)OCC)n1c(=O)c(C)cn(C2CC(N=[N+]=[N-])C(CO)O2)c1=O` (stereo not given), the GI50 in test [1] was 33.9 µM (inactive); in test [2], 48.6 µM (inactive); in test [3], 31.6 µM (inactive); in test [4] it was 43.5 µM (inactive); in test [5], 2.31 µM (inactive); in test [6], 51.2 µM (inactive). For the same compound, the GI50 is 1.86 µM (inactive) in test [7]; 27.5 µM (inactive) in test [8]; 26.4 µM (inactive) in test [9]; 29.6 µM (inactive) in [10]; 47.4 µM (inactive) in [11]; 13.5 µM (inactive) in [12]. Also, the GI50 is 24.2 µM (inactive) in test [13]; 44.8 µM (inactive) in [14]; 22.1 µM (inactive) in test [15]; 29.4 µM (inactive) in test [16]; 19.5 µM (inactive) in test [17]; 56.9 µM (inactive) in test [19].
